Results as given in publication PMC7582602, “Beyond the Canonical Endocannabinoid System. A Screening of PPAR Ligands as FAAH Inhibitors” (International Journal of Molecular Sciences, 2020).
Read-outs that look alike come from different tables or passages of the source.

Experiments:
[1] = target: T1, FAAH Human recombinant (Homo sapiens, UniProt O00519); test: FAAH inhibition assay (fluorometric, AMC-AA substrate); format: biochemical; conditions: for IC50: human recombinant FAAH, mean ± SEM, i: inactive; for inhibition at 100 µM: read-out: FAAH % inhibition @ 100 μM
T1 construct: purchased Cayman Chemical
T1 sequence (O00519 1-579): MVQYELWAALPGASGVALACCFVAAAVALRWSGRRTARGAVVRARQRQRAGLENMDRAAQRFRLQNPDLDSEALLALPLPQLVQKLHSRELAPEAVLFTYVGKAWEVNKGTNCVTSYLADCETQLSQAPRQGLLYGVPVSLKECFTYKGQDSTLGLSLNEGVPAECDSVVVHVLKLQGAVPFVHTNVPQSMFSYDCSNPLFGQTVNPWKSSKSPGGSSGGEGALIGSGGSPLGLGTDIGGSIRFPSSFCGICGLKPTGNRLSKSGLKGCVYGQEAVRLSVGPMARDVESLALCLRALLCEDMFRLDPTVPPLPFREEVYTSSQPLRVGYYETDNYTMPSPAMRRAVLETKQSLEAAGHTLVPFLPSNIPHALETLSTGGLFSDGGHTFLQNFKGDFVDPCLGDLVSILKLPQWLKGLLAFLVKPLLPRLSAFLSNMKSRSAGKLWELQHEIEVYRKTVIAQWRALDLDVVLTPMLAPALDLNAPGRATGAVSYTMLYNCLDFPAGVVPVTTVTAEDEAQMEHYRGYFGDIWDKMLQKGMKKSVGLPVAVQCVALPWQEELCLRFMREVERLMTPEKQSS
Procedure: Briefly, 96-well black flat-bottom microtiter NBS plates (COSTAR flat black) were utilized to perform the assays (in triplicate).
Control wells lacking the inhibitor and blank wells lacking both inhibitor and enzyme were used to calculate percent inhibition for each tested compound. IC50 values were calculated via GraphPad Prism 5.0 (GraphPad Software, La Jolla, CA, USA) and are reported as mean ± SEM of at least two independent measurements performed in triplicate.

[2] = target: T2, human PPARα (Homo sapiens, UniProt Q07869); conditions: previously reported compound; cited from earlier work
T2 sequence (Q07869 239-466 limits assumed): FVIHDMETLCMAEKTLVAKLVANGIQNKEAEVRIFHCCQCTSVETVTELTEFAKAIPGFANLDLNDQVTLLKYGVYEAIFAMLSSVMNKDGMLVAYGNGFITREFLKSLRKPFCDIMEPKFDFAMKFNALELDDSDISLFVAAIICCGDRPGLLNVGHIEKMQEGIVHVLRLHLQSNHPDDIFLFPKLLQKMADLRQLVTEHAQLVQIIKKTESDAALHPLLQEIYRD

[3] = target: T3, human PPARγ (Homo sapiens, UniProt P37231); conditions: previously reported compound; cited from earlier work
T3 sequence (P37231 238-503 limits assumed): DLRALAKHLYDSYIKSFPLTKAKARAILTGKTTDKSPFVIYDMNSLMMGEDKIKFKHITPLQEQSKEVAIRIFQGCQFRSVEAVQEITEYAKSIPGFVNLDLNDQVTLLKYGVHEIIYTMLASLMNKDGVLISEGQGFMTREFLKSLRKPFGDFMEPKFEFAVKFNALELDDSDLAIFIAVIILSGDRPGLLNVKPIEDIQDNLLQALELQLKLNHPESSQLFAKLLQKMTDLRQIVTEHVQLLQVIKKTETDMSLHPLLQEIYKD

[4] = target: T2, human PPARα; test: GAL4-PPARα-LBD transactivation (luciferase) assay in HepG2 cells; conditions: for Emax: HepG2, read-out: PPARα Emax
[5] = target: T3, human PPARγ; test: GAL4-PPARγ-LBD transactivation (luciferase) assay in HepG2 cells; conditions: for Emax: HepG2, read-out: PPARγ Emax
[6] = LogD; format: physicochemical; conditions: called measured LogD values
[7] = test system: FAAH; set-up: method as in PMID 23240907; conditions: literature value for carprofen; cited from earlier work

Compound	IC50 [1]	inhibition at 100 µM [1]	PPARα Emax [2]	PPARγ Emax [3]	also measured
CCCc1c(OCCCOc2ccc(OCC(=O)O)cc2)ccc(C(C)=O)c1O [Compound 3, L165,041, reference compound]	> 100 µM	40%			activity on FAAH (in words) [1]: little to no activity
O=C(O)C(Cc1ccccc1)Oc1ccc(/C=C\c2ccccc2)cc1 (centres unmarked) [Compound 19]	> 100 µM	30.5%			
Cc1cccc(Nc2cc(Cl)nc(SCC(=O)O)n2)c1C [Compound 2, Wy 14,643, reference compound]	> 100 µM				activity on FAAH (in words) [1]: little to no activity
CC(C(=O)O)c1ccc2c(c1)[nH]c1ccc(Cl)cc12 (centres unmarked) [carprofen]					IC50 [7]: 79 ± 20 µM
O=C(/C=C/c1ccc(O)c(O)c1)O[C@H](Cc1ccc(O)c(O)c1)C(=O)O [Compound 4, Rosmarinic acid]	~100 µM	62%			activity on PPARα (in words) [4]: did not find any activity; activity on PPARγ (in words) [5]: did not find any activity
CCCCCCCN(CCc1ccc(O[C@H](C)C(=O)O)cc1)c1nc2ccccc2o1 [Compound 26]	> 100 µM	35%	93 ± 6%	59 ± 2%	
O=C(Oc1ccc([N+](=O)[O-])cc1)N1CCN(Cc2cccc(Oc3ccccc3)c2)CC1 [JZL195, reference compound]	0.019 ± 0.003 µM				
O=C(O)C(Cc1ccccc1)Oc1ccc(/C=C/c2ccccc2)cc1 (centres unmarked) [Compound 18]	24 ± 2.5 µM				
CCCCCCCN(CCc1ccc(O[C@@H](C)C(=O)O)cc1)c1nc2ccccc2o1 [Compound 25]	~100 µM	45.1%	78 ± 4%	32 ± 5%	
COc1ccc(C=CC(=O)N[C@@H](Cc2ccc(O)cc2)C(=O)O)cc1OC [Compound 35, (S)-2-(3-(3,4-dimethoxyphenyl)acrylamido)-3-(4-hydroxyphenyl)propanoic acid]					melting point: 105 to 108.5 °C

Second part, led by results:

IC50 [1]	inhibition at 100 µM [1]	Compound	PPARα Emax [2]	PPARγ Emax [3]	also measured
> 100 µM	39.2%	O=C(O)C(Cc1ccccc1)Oc1ccc(NCc2ccccc2)cc1 (centres unmarked) [Compound 20]	78 ± 4%	27 ± 6%	
> 100 µM	32.2%	CC(Oc1ccc(CCc2ccccc2)cc1)C(=O)O (racemic) [Compound 16]			melting point: 106 to 107 °C; EC50 [4]: 17.6 ± 3 µM; Emax [4]: 116 ± 1%; EC50 [5]: 24 ± 6 µM; Emax [5]: 18 ± 7%
> 100 µM	34%	O=C(Cc1ccccc1)c1ccc(O[C@@H](Cc2ccccc2)C(=O)O)cc1 [Compound 21]	106 ± 1%	40 ± 2%	EC50 [2]: 1800 ± 1000 nM; EC50 [3]: 9.1 ± 0.9 µM
> 100 µM		O=C(O)C(Cc1ccccc1)Oc1ccc(Cc2ccccc2)cc1 (centres unmarked) [Compound 14]	115 ± 27%	42 ± 1%	activity on FAAH (in words) [1]: completely inactive; logD [6]: 2.62
40.2 ± 17.7 µM		O=C(O)COc1ccc(Cc2ccccc2)cc1 [Compound 5, 4-benzyl-phenoxyacetic acid]			logD [6]: 0.27; melting point: 117 to 118 °C; EC50 [4]: 24 ± 5 µM; Emax [4]: 34 ± 8%; EC50 [5]: 33 ± 23 µM; Emax [5]: 9 ± 6%
26.1 ± 11.4 µM		Oc1ccc(/C=C/c2cc(O)cc(O)c2)cc1 [Compound 12, resveratrol]			
12.6 ± 3.1 µM		O=C(C=Cc1ccc(O)c(O)c1)N[C@@H](Cc1ccccc1)C(=O)O [Compound 33]			melting point: 198 to 199 °C
> 100 µM		O=C(/C=C/c1ccccc1)O[C@@H](Cc1ccccc1)C(=O)O [(S)-28]			Emax [4]: 34 ± 8%; Emax [5]: 9 ± 6%
30.5 ± 12.6 µM		CCCCCCCN(CCc1ccc(OCC(=O)O)cc1)c1nc2ccccc2o1 [Compound 8]	87 ± 7%	37 ± 11%	EC50 [2]: 120 ± 160 nM; EC50 [3]: 0.83 ± 0.75 µM
> 100 µM		CC(Oc1ccc(Cc2ccc(OCc3coc(-c4ccccc4)n3)cc2)cc1)C(=O)O (centres unmarked) [Compound 17]	47 ± 13	26 ± 3	
~100 µM	63%	O=C(O)COc1ccc(CCc2ccccc2)cc1 [Compound 15, 4-phenethyl-phenoxyacetic acid]			melting point: 130 to 131 °C
> 100 µM	30%	CC(Oc1ccc(Cc2ccccc2)cc1)C(=O)O (racemic) [Compound 13, (R,S)-2-(4-benzyl)-phenoxypropanoic acid]			melting point: 102 to 104 °C; EC50 [4]: 4.6 ± 1.8 µM; Emax [4]: 116 ± 1%
